Patent publication US20120213826A1, “Use of Pro-Inflammatory Compounds for Promoting Bone Formation” (Imperial Innovations Limited, priority 2009, published 2012)

Test system: muscle-derived stromal cells (MDSC)
Assay: ALP quantification assay, osteogenic differentiation of cultured MDSC
Format: cell-based, human
Description: The immunoglobulin isotype controls used included IgG^1 for AbBMP-2/4 and AbTGF-β, and IgG^2B for Ab-BMP-7. B: human serum containing culture medium with the addition of recombinant human BMPs and TGF-β. C: fracture supernatant±antibody neutralization of TNF-α, IL-6 and IL-1β. The IgG^1 immunoglobulin was used as the antibody isotype control. D: human serum-containing culture medium with the addition of recombinant human TNF-α, IL-6 and IL-1β. E: Alizarin red staining for bone nodule formation after culture of 1×10^4 MDSC in human serum-containing media. […] A representative image from a single well is shown. All experiments were performed 3 times, in triplicate (n=3) using MDSC from 3 donors. Values for A-D represent a mean from 3 experiments ±SEM, using supernatant from 3 donors in A and C. *: P<0.05; **: P<0.01; ***: P<0.001; 1-way ANOVA with Bonferroni's multiple comparison test in A and C and with Dunnett's multiple comparison test against the media only control in B and D.
To investigate the fracture-derived stimulus for osteogenic differentiation of MDSC, fracture supernatants were prepared using human tibial fracture fragments obtained within 24 hours of injury (ethics approval number—COREC No: 07/Q0411/30). […] Bone fragments were obtained from either fractured tibial fragments or non-traumatically cut bone slices. These were then incubated in serum free DMEM+Glutamax media for 24 hours. The supernatant was then filter sterilised to remove any contaminants and cellular debris. MDSC were then cultured in the presence of either control media, osteogenic media, fracture supernatant or non-fracture supernatant for 7 days before lysis and quantification of ALP levels.
1×10^4 human MDSC were added to wells of a 96 well plate in triplicate. At 24 hrs the media was pipetted off and replaced by 200 μl test media. The media was changed every 3 days. At 7 days the media was removed and the cells lysed in 20 μl NP-40 lysis buffer. An ALP quantification assay (WAKO pure chemical Ltd.) was used. Calibration solution from the assay was serially diluted to make concentrations of 0.25, 0.125 and 0.0625 mmol/L. To empty wells, 20 μl of each calibration solution was added. To another, dH2O was added. 100 μl reagent (1 taBIet per 5 ml buffer solution) was added to each well, and incubated at 37° C. for 20 minutes. 80 μl stop solution was then added to each well and the plate was read using an ELISA spectrometer at 405 nm wavelength. The concentration of ALP in the test wells was extrapolated from the standard curve.

Substance: TNFα
- ALP expression (osteogenic differentiation) in cultured MDSC (Example 1, exogenous recombinant human factor added to MDSC culture (FIG. 8, 10, 12)): dose-dependent stimulation of ALP expression
- ALP expression by MDSC (Example 3, 7 days in human serum-containing media with recombinant human factor (FIG. 26B, 26D)): stimulated ALP expression
- concentration at which ALP expression by MDSC is stimulated (Example 3, 7 days, human serum-containing media (FIG. 26D)): up to 1 ng/ml
- ALP expression by MDSC relative to control (Example 3, TNF-α at 100 ng/ml, 7 days (FIG. 26D)): non-significantly less than the control
